Key:
Assay in all cases: combination Emax (second highest fraction inhibited in the dose matrix, 72 h); higher = more inhibition; extreme values may be limits of the assay
[1] = tested on: BHT-101 (Thyroid Gland Carcinoma)
Method in brief: (§1)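 Bliss excess equals the observed combination effect minus the expected value EA + EB − EA·EB, where EA and EB are the effects of each agent alone. Combination Emax is the second-highest inhibition within the matrix. Inhibition was scaled from CellTiter-Glo 2.0 luminescence, with 0 set by vehicle wells and 1 by blank wells, after 72 hours of two-drug dosing of cells plated in 1536-well plates.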

[2] = tested on: C-33-A (Cervical Carcinoma)
Method in brief: as §1

[3] = tested on: COR-L88 (Small Cell Lung Carcinoma)
Method in brief: as §1

[4] = tested on: DBTRG-05MG (Glioblastoma)
Method in brief: as §1

[5] = tested on: IST-MEL1 (Melanoma)
Method in brief: as §1

[6] = tested on: KP-4 (Pancreatic Carcinoma)
Method in brief: as §1

[7] = tested on: LS-1034 (Colorectal Carcinoma)
Method in brief: as §1

[8] = tested on: MM1S (Plasma Cell Myeloma)
Method in brief: as §1

[9] = tested on: NCI-H1341 (Small Cell Lung Carcinoma)
Method in brief: as §1

[10] = tested on: NCI-H2373 (Mesothelioma)
Method in brief: as §1

[11] = tested on: NCI-H596 (Other Solid Carcinomas)
Method in brief: as §1

[12] = tested on: OAW-28 (Ovarian Carcinoma)
Method in brief: as §1

[13] = tested on: OVCAR-3 (Ovarian Carcinoma)
Method in brief: as §1

[14] = tested on: SCC-4 (Oral Cavity Carcinoma)
Method in brief: as §1

[15] = tested on: SKG-IIIa (Cervical Carcinoma)
Method in brief: as §1

[16] = tested on: SNU-C2B (Colorectal Carcinoma)
Method in brief: as §1

[17] = tested on: T47D (Breast Carcinoma)
Method in brief: as §1

[18] = tested on: UACC-257 (Melanoma)
Method in brief: as §1

[19] = tested on: WM35 (Melanoma)
Method in brief: as §1

Compound	combination Emax [1]	combination Emax [2]	combination Emax [3]	combination Emax [4]	combination Emax [5]	combination Emax [6]	combination Emax [7]	combination Emax [8]	combination Emax [9]	combination Emax [10]	combination Emax [11]	combination Emax [12]	combination Emax [13]	combination Emax [14]	combination Emax [15]	combination Emax [16]	combination Emax [17]	combination Emax [18]	combination Emax [19]
CS(=O)(=O)CCNCc1ccc(-c2ccc3ncnc(Nc4ccc(OCc5cccc(F)c5)c(Cl)c4)c3c2)o1 [Lapatinib] + C[C@@H](Oc1cc(-c2cnn(C3CCNCC3)c2)cnc1N)c1c(Cl)ccc(F)c1Cl [Crizotinib] (first compound max 10 µM, 7x7, partner max 10 µM)	0.98	0.921	0.57	0.332	0.811	0.761	0.946	0.962	0.898	0.559	0.902	0.75	0.548	0.913	0.733	0.753	0.525	0.947	0.88
NC1(C(=O)N[C@@H](CCO)c2ccc(Cl)cc2)CCN(c2ncnc3[nH]ccc23)CC1 [Capivasertib] + CC(=O)c1c(C)c2cnc(Nc3ccc(N4CCNCC4)cn3)nc2n(C2CCCC2)c1=O [Palbociclib] (first compound max 10 µM, 7x7, partner max 10 µM)	0.675	0.679	0.226	0.23	0.48	0.595	0.499	0.981	0.506	0.538	0.596	0.191	0.379	0.271	0.27	0.424	0.434	0.276	0.263
Cc1c2c(nn1C)CSCc1cc(n(C)n1)CSc1cc(c3ccccc3c1)OCCCc1c(C(=O)O)n(C)c3c-2c(Cl)ccc13 [AZD5991] + CN(C)CCCOc1ccc(-c2ccc3ncc4c(c3c2)n(C2CCOCC2)c(=O)n4C)cn1 [AZD0156] (first compound max 1 µM, 7x7, partner max 1 µM)	0.659	0.245	0.3	0.221	0.196	0.259	0.217	0.992	0.379	0.272	0.328	0.25	0.427	0.382	0.218	0.215	0.749	0.277	0.231
NC1(C(=O)N[C@@H](CCO)c2ccc(Cl)cc2)CCN(c2ncnc3[nH]ccc23)CC1 [Capivasertib] + CCN(CCO)CCCOc1ccc2c(Nc3cc(CC(=O)Nc4cccc(F)c4)[nH]n3)ncnc2c1 [AZD2811] (first compound max 10 µM, 7x7, partner max 1 µM)	0.353	0.712	0.253	0.317	0.459	0.682	0.302	0.998	0.655	0.491	0.564	0.249	0.344	0.333	0.374	0.329	0.456	0.394	0.328
Cn1cnc2c(F)c(Nc3ccc(Br)cc3Cl)c(C(=O)NOCCO)cc21 [Selumetinib] + CC(C)n1c(=O)n(C)c2cnc3cc(F)c(-c4ccc(OCCCN5CCCCC5)nc4)cc3c21 [AZD1390] (first compound max 10 µM, 7x7, partner max 0.3 µM)	0.791	0.264	0.198	0.315	0.289	0.283	0.689	0.264	0.163	0.298	0.21	0.332	0.048	0.278	0.2	0.29	0.109	0.568	0.65
Cc1nc(Nc2ncc(C(=O)Nc3c(C)cccc3Cl)s2)cc(N2CCN(CCO)CC2)n1 [Dasatinib] + CC(=O)Nc1cccc(-n2c(=O)n(C3CC3)c(=O)c3c(Nc4ccc(I)cc4F)n(C)c(=O)c(C)c32)c1 [Trametinib] (first compound max 2 µM, 7x7, partner max 1 µM)	0.998	0.642	0.2	0.556	0.793	0.735	0.861	0.227	0.425	0.391	0.607	0.524	0.494	0.712	0.5	0.66	0.344	0.644	0.837
COc1cc2ncnc(Nc3ccc(F)c(Cl)c3)c2cc1OCCCN1CCOCC1 [Gefitinib] + CC(C)n1c(=O)n(C)c2cnc3cc(F)c(-c4ccc(OCCCN5CCCCC5)nc4)cc3c21 [AZD1390] (first compound max 10 µM, 7x7, partner max 0.3 µM)	0.255	0.485	0.21	0.0768	0.0683	0.121	0.117	0.217	0.108	0.119	0.269	0.215	0.0817	0.275	0.148	0.246	0.147	0.053	0.0767
COc1nnc2ccc(N3CCC(c4ccc(OCCN5CCN(C)C(=O)[C@H]5C)cc4)CC3)nn12 [AZD5153] + Cc1c2c(nn1C)CSCc1cc(n(C)n1)CSc1cc(c3ccccc3c1)OCCCc1c(C(=O)O)n(C)c3c-2c(Cl)ccc13 [AZD5991] (first compound max 1 µM, 7x7, partner max 1 µM)	0.84	0.644	0.807	0.205	0.242	0.76	0.491	1	0.897	0.381	0.79	0.666	0.632	0.775	0.471	0.568	0.571	0.501	0.798
NC1(C(=O)N[C@@H](CCO)c2ccc(Cl)cc2)CCN(c2ncnc3[nH]ccc23)CC1 [Capivasertib] + COc1nnc2ccc(N3CCC(c4ccc(OCCN5CCN(C)C(=O)[C@H]5C)cc4)CC3)nn12 [AZD5153] (first compound max 10 µM, 7x7, partner max 1 µM)	0.759	0.779	0.496	0.206	0.451	0.58	0.499	1	0.851	0.591	0.639	0.493	0.526	0.678	0.43	0.54	0.477	0.355	0.538
C=CCn1c(=O)c2cnc(Nc3ccc(N4CCN(C)CC4)cc3)nc2n1-c1cccc(C(C)(C)O)n1 [AZD1775] + C1CN(CCC1(C(=O)N[C@@H](CCO)C2=CC=C(C=C2)Cl)N)C3=NC=NC4=C3C=CN4 [Capivasertib] (first compound max 3 µM, partner max 3 µM)	0.631	0.996	0.703	0.474	0.65	0.787	0.763	1	0.923	0.54	0.708	0.593	0.695	0.505	0.574	0.702	0.555	0.455	0.681
COc1nnc2ccc(N3CCC(c4ccc(OCCN5CCN(C)C(=O)[C@H]5C)cc4)CC3)nn12 [AZD5153] + CC1(C)CCC(CN2CCN(c3ccc(C(=O)NS(=O)(=O)c4ccc(NCC5CCOCC5)c([N+](=O)[O-])c4)c(Oc4cnc5[nH]ccc5c4)c3)CC2)=C(c2ccc(Cl)cc2)C1 [Venetoclax] (first compound max 1 µM, 7x7, partner max 1 µM)	0.718	0.379	0.348	0.252	0.14	0.526	0.538	0.611	0.688	0.39	0.751	0.352	0.522	0.389	0.42	0.545	0.483	0.305	0.556
COc1nnc2ccc(N3CCC(c4ccc(OCCN5CCN(C)C(=O)[C@H]5C)cc4)CC3)nn12 [AZD5153] + C[C@@H]1COCCN1C2=NC(=NC(=C2)C3(CC3)[S@](=N)(=O)C)C4=C5C=CNC5=NC=C4 [AZD6738] (first compound max 1 µM, 7x7, partner max 10 µM)	0.816	0.958	0.548	0.307	0.789	0.77	0.758	0.778	0.955	0.565	0.79	0.851	0.821	0.732	0.537	0.658	0.637	0.394	0.731
NC1(C(=O)N[C@@H](CCO)c2ccc(Cl)cc2)CCN(c2ncnc3[nH]ccc23)CC1 [Capivasertib] + Cn1cnc2c(F)c(Nc3ccc(Br)cc3Cl)c(C(=O)NOCCO)cc21 [Selumetinib] (first compound max 10 µM, 7x7, partner max 10 µM)	0.902	0.803	0.257	0.431	0.584	0.483	0.657	1	0.728	0.664	0.575	0.268	0.317	0.778	0.435	0.388	0.42	0.731	0.782

Reference: the supplement of paper PMC11061612
